Results reported in ChEMBL document CHEMBL1121373, “Synthesis and antifertility activity of 3,9-dihydroxy-5,6,6a alpha,6b beta,11,12,12a beta,12b alpha-octahydrodibenzo[a,g]biphenylene, a structural relative of diethylstilbestrol” (1980).

Assays:
Rattus norvegicus = species: Rattus norvegicus; experiment: Effective dose for antifertility activity in rats; assay type: functional
[1] = biological target: Estrogen receptor (Rattus norvegicus) (UniProt P06211+Q62986); experiment: Estrogenic activity in uterotrophic assay in rats on oral administration relative to diethylstilbestrol; assay type: functional, organism-based

- Potency [1]: 16%
SMILES: Oc1ccc2c(c1)CCC1C2C2CCc3cc(O)ccc3C12 (configuration not stated)
- ED100 (Rattus norvegicus): 100 µg/day/kg
